US10336768B2, “Pyrimidine compounds and methods using the same” (Yuma Therapeutics, Inc., priority 2014, dated 2019)
≈ marks a conversion by molar mass, not a printed value.

Legend:
[1] = Solubility in pH 7.4 buffer; assay type: physicochemical; conditions: pH 7.4, aqueous buffer, pH of 7.4
Method: Compound solubility was determined in pH 7.4 buffer. Aqueous solubility of greater than or equal to about 0.5 μM (e.g., greater than or equal to about 1 μM, greater than or equal to about 2 μM, greater than or equal to about 5 μM, greater than or equal to about 10 μM, greater than or equal to about 20 μM, or greater than or equal to about 30 μM) may indicate a compound having acceptable solubility for medical use, e.g., for treatment of a neurodegenerative disorder.

[2] = Mouse liver microsomal stability; assay type: in vitro ADME; conditions: mouse liver microsomes; read-out: microsomal stability T1/2
Method: Metabolic stability of the compounds of the invention was assessed by monitoring their degradation in mouse liver microsomes.

Question: Which solubility [1] does the source give for `Nc1nc(-c2c(Cl)cc(Cl)c3c2CCO3)c2[nH]ccc2n1` [compound 20, 4-(5,7-Dichloro-2,3-dihydrobenzofuran-4-yl)-5H-pyrrolo[3,2-d]pyrimidin-2-amine] here?
Answer: 30 µM (≈ 9.64 µg/mL)

Question: And the half-life [2]?
Answer: 26 min
